Data on 21 compounds can be found in patent US6268478A, “Intracellular vitamin D binding protein” (Cedars-Sinai Medical Center, priority 1997, dated 2001).

One assay deals with IDBP (Saguinus oedipus, UniProt Q9N1U2). Description: Competitive displacement of [3H]25-OHD3 from IDBP in unfractionated 100,000×g supernatant extracts of B95-8 cells (competitive protein binding assay, dextran-coated charcoal). On the set-up: post-nuclear 100,000xg supernatant of B95-8 marmoset lymphoblasts and partly purified column fractions; species or system Callithrix jacchus (common marmoset). To be noted: for RBI (Relative Binding Index): relative ability of maximally effective concentration to displace [3H]25-OHD3, 25-OHD3 assigned 100, unfractionated 100,000×g supernatant of B95-8 cells; for ability to competitively displace [3H]25-OHD3 binding (FIG. 1A): 100 nM competitor, 2 nM [3H]25-OHD3; for binding / displacement of [3H]25-OHD3 by vitamin D2 metabolites and synthetic analogues (FIG. 2B): unfractionated B95-8 extracts, 4 nM [3H]25-OHD3. The source says:
Culture and Extraction of B95-8 Cells. The B-lymphoblastoid cell line B95-8 was obtained from the American Type Culture Collection (ATCC, Manassas, Va.). This cell line was established by EBV transformation of blood leukocytes from the vitamin D-resistant new world primate, Callithrix jacchus (common marmoset). The cell line was maintained in RPMI-1640 medium (Irvine Scientific, Irvine, Calif.) routinely supplemented with 10% fetal calf serum (FCS; Gemini BioProducts, Calabasas, Calif.), 100 units/ml penicillin, 100 μg/ml streptomycin, 2 mM L-glutamine (both from Gibco-BRL, Grand Island, N.Y.) in an atmosphere of 95% air-5% CO2.
Confluent cultures were harvested by agitation to dislodge clumps of lymphoblasts that were weakly adherent to the plastic flask. Harvested cells were pelleted and washed twice in ice cold phosphate-buffered saline (PBS; 20 mM Na2 HPO4 and 150 mM NaCl, pH 7.2). The pelleted cells were then resuspended in ETD buffer (1 mM EDTA, 10 mM Tris-HCl, 5 mM dithiothreitol, pH 7.4) containing 1 mM phenylmethylsulfonylflouride and homogenized by Polytron on ice in five 15-second bursts. Nuclei with associated nuclear steroid receptor proteins, were pelleted at 4,000×g for 30 minutes at 4° C. The post-nuclear supernatant of this spin was then subjected to high-speed centrifugation at 100,000×g for 1 hour at 4° C. The resulting "100,000×g supernatant" was either aliquoted and stored at […] for further study, used in competitive ligand binding analyses, or subjected to further purification as described below in Example II.
Ligand Binding Analyses. The ability of the unfractionated 100,000×g supernatant extracts of B95-8 cells and individual column […] of increasing concentrations of radioinert compounds (see Table I) was performed by competitive protein binding assay as previously described in Gacad et al. Bone Min. Res. 8:27-35 (1993).
[…] […] […] […] The binding assay conditions were the same as those stated above except that specific binding was determined in ETD-0.3 M Na2 HPO4 buffer (pH 6.8).
For orientation: Loss of bound radioactivity is the signal in a displacement assay; it reports binding, not function.

Assay [1] deals with T1, human heat shock protein-70 (hsp70) (Homo sapiens, UniProt P0DMV8).
T1 construct: purchased StressGen, Victoria, B.C., Canada
T1 sequence (P0DMV8 whole entry): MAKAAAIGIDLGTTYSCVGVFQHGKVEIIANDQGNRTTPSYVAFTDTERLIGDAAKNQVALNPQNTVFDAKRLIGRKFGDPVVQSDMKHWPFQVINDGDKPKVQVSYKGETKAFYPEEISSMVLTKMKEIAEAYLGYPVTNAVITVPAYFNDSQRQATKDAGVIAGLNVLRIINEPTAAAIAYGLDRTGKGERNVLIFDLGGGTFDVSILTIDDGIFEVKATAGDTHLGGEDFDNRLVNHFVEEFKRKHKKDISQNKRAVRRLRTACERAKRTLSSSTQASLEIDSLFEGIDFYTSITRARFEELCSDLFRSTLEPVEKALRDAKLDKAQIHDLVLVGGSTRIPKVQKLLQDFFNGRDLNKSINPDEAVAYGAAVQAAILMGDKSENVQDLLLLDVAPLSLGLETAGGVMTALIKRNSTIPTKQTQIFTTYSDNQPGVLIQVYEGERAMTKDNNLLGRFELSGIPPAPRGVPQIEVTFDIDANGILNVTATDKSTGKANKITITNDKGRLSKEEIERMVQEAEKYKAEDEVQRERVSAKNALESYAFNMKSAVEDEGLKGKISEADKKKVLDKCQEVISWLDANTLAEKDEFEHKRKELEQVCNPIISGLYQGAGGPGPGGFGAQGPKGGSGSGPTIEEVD
Description: Competitive ligand binding of [3H]25-hydroxyvitamin D3 to recombinant inducibly-expressed hsp70. To be noted: recombinant human inducibly-expressed hsp70. The method, then:
Ligand Binding Analyses. The ability of the unfractionated 100,000×g supernatant extracts of B95-8 cells and individual column fractions of chromatographically-purified material to bind [^3 H]25-OHD3 in the presence or absence of increasing concentrations of radioinert compounds (see Table I) was performed by competitive protein binding assay as previously described in Gacad et al. Bone Min. Res. 8:27-35 (1993).
Briefly, unfractionated or post-FPLC fractions were incubated in ETD-0.5 M NaCl overnight at 4° C. with 4 nM [3H]25-OHD3 in the presence or absence of 1-100 nM unlabeled competitive ligand. Protein-bound [^3 H]25-OHD3 was separated from unbound sterol by incubation with dextran-coated charcoal. Specifically-bound 25-OHD3 was determined by subtracting the mean of duplicate determinations of binding in the presence of 100 nM radioinert competitive ligand from the mean of determinations of binding in the absence of added competitive ligand. Specific binding of 17β-[^3 H]estradiol as well as [^3 H]25-OHD3 to IDBP(s) was also determined in individual fractions eluting from hydroxyapatite chromatography. The binding assay conditions were the same as those stated above except that specific binding was determined in ETD-0.3 M Na2 HPO4 buffer (pH 6.8).
Inducibly-expressed, recombinant human heat shock protein-70 (hsp70) was purchased from StressGen, Victoria, B.C., Canada. […]

IDBP, sequence (Q9N1U2 whole entry): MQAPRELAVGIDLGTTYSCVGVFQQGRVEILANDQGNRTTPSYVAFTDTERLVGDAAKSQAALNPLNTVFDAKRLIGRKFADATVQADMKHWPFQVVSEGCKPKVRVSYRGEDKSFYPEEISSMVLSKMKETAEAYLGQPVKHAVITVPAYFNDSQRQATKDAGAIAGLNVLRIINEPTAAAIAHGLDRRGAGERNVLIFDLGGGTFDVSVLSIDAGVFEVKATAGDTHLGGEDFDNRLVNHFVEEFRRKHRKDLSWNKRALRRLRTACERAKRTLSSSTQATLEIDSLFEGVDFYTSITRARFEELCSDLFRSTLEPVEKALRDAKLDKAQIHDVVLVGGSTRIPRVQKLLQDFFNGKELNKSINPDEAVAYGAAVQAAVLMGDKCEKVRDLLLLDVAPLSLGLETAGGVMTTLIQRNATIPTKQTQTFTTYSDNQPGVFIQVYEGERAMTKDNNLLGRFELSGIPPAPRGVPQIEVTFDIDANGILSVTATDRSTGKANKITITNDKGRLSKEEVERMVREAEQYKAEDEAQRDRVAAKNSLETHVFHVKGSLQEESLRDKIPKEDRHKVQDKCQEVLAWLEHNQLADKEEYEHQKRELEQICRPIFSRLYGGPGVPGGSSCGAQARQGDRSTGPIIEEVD

On to `C[C@]12CC[C@H](O)CC1=CC[C@@H]1[C@@H]2CC[C@]2(C)C(=O)CC[C@@H]12` [DHEA], for which, at IDBP, the “RBI (Relative Binding Index)” value is given as 0. With `C[C@]12CCC(=O)C=C1CC[C@@H]1[C@@H]2[C@@H](O)C[C@]2(C=O)[C@@H](C(=O)CO)CC[C@@H]12` [Aldosterone], the “RBI (Relative Binding Index)” value on IDBP came to 0. In the case of `C[C@]12CCC(=O)C[C@@H]1CC[C@@H]1[C@@H]2CC[C@]2(C)[C@@H](O)CC[C@@H]12` [5-Dihydroxytestosterone], the “competition of non-vitamin D steroids and bioactive lipids with 25-OHD3 for binding” value at IDBP (crude post-nuclear / 100,000×g supernatant extracts of B95-8 cells) was “none of the six steroid precursor molecules, glucocorticoids, mineralocorticoids, or the major intracellular metabolite of testosterone, 5-dihydrotestosterone, were capable ligands”. Further, the “RBI (Relative Binding Index)” value on IDBP stood at 0. Take `CC(C)CCC[C@@H](C)[C@H]1CC[C@H]2[C@@H]3CC=C4C[C@@H](O)CC[C@]4(C)[C@H]3CC[C@]12C` [Cholesterol]: the “RBI (Relative Binding Index)” value at IDBP came to 0.

Turning to `CC1=C(/C=C/C(C)=C\C=C\C(C)=C\C(=O)O)C(C)(C)CCC1` [9-cis Retinoic acid], the “RBI (Relative Binding Index)” value at IDBP stood at 0. On the same count and under the same terms, as for `CCCCC[C@H](O)/C=C/[C@@H]1[C@@H](C/C=C\CCCC(=O)O)[C@@H](O)C[C@H]1O` [PGF2alpha], the figure is 0. For `C[C@]12CCC(=O)C=C1CC[C@@H]1[C@@H]2CC[C@]2(C)C(=O)CC[C@@H]12` [Androstendione], the “RBI (Relative Binding Index)” value on IDBP is 0. Same read-out and setting: then `CC(=O)[C@H]1CC[C@H]2[C@@H]3CC=C4C[C@@H](O)CC[C@]4(C)[C@H]3CC[C@]12C` [Pregnenolone], with 0. Turning to `C=C1CC[C@H](O)C/C1=C/C=C1\CCC[C@]2(C)[C@@H]([C@H](C)CCCC(C)C)CC[C@@H]12` [Vltamin D3, cholecalciferol], on IDBP, the “ability to competitively displace [3H]25-OHD3 binding (FIG. 1A)” value (shortened to “ability to competitively displace”) is on record as “ineffective as a competitive ligand” and the “RBI (Relative Binding Index)” value came to 0. Turning to `C=C1/C(=C\C=C2/CCC[C@]3(C)[C@@H]([C@H](C)/C=C/[C@@H](O)C4CC4)CC[C@@H]23)C[C@@H](O)C[C@@H]1O` [Calcipotriol (MC903), Calcipotriol], at IDBP, the “RBI (Relative Binding Index)” value was 0; the “binding / displacement of [3H]25-OHD3 by vitamin D2 metabolites and synthetic analogues (FIG. 2B)” value is “none of the C-1-hydroxylated nonhypercalcemic analogues MC903, EB1089 and KH1060 (FIG. 2A) were able to displace [^3 H]25-OHD3 binding”. For the compound `C[C@]12C[C@H](O)[C@H]3[C@@H](CCC4=CC(=O)CC[C@@]43C)[C@@H]1CC[C@@H]2C(=O)CO` [Corticosterone (B), Corticosterone], the “RBI (Relative Binding Index)” value at IDBP came to 0. In the case of `CC(C)CCC[C@@H](C)[C@H]1CC[C@H]2C3=CC=C4C[C@@H](O)CC[C@]4(C)[C@H]3CC[C@]12C` [7-Dehydrocholesterol], at IDBP, the “RBI (Relative Binding Index)” value worked out at 0. As for “[^3 H]25-hydroxy vitamin D3 [[^3 H]25-OHD3]”, the “specific [3H]25-OHD3 binding activity of hsp70” value in assay [1] is “exhibited specific [^3 H]25-OHD3 binding activity”. As for `C[C@]12CC[C@H]3[C@@H](CCC4=CC(=O)CC[C@@]43C)[C@@H]1CC[C@@H]2C(=O)CO` [Deoxycorticosterone (DOC), Deoxycorticosterone], the “RBI (Relative Binding Index)” value on IDBP was found to be 0.

Turning to `C=C1/C(=C\C=C2/CCC[C@]3(C)[C@@H]([C@H](C)CCCC(C)C)CC[C@@H]23)C[C@@H](O)C[C@@H]1O` [1-OHD3], on IDBP, the “ability to competitively displace” value is “incapable of displacing [^3 H]25-OHD3” and the “RBI (Relative Binding Index)” value amounted to 0. For `C=C1CC[C@H](O)C/C1=C/C=C1\CCC[C@]2(C)[C@@H]([C@H](C)CCC(O)C(C)(C)O)CC[C@@H]12` (some centres unmarked) [24,25-(OH)2D3], at IDBP, the “ability to competitively displace” value is “roughly equivalent in their ability to competitively inhibit” and the “RBI (Relative Binding Index)” value is 72. On the same counts, the results for `CC(C)[C@@H](C)/C=C/[C@@H](C)[C@H]1CC[C@H]2/C(=C/C=C3\C[C@@H](O)CC[C@@H]3C)CCC[C@]12C` [Dihydrotachysterol] are “incapable of displacing [^3 H]25-OHD3” and 0. On to `C=C1CC[C@H](O)C/C1=C/C=C1\CCC[C@]2(C)[C@@H]([C@H](C)/C=C/[C@H](C)C(C)(C)O)CC[C@@H]12` [25-OHD2, 25-hydroxy vitamin D2], for which, at IDBP, the “RBI (Relative Binding Index)” value is recorded as 100; the “binding / displacement of [3H]25-OHD3 by vitamin D2 metabolites and synthetic analogues (FIG. 2B)” value is “bound in unfractionated extracts equivalently to 25-OHD3 and 1,25-(OH)^2 D3”. Regarding `C=C1/C(=C\C=C2/CCC[C@]3(C)[C@@H]([C@@H](C)OCCCC(O)(CC)CC)CC[C@@H]23)C[C@@H](O)C[C@@H]1O` [KH1060], at IDBP, the “RBI (Relative Binding Index)” value stood at 0; the “binding / displacement of [3H]25-OHD3 by vitamin D2 metabolites and synthetic analogues (FIG. 2B)” value is “none of the C-1-hydroxylated nonhypercalcemic analogues MC903, EB1089 and KH1060 (FIG. 2A) were able to displace [^3 H]25-OHD3 binding”. Take `CC#C[C@]1(O)CC[C@H]2[C@@H]3CCC4=CC(=O)CCC4=C3[C@@H](c3ccc(N(C)C)cc3)C[C@@]21C` [RU486]: the “RBI (Relative Binding Index)” value on IDBP came out at 0. Take `C[C@]12CCC(=O)C=C1CC[C@@H]1[C@@H]2C(=O)C[C@@]2(C)[C@H]1CC[C@]2(O)C(=O)CO` [Cortisone]: the “RBI (Relative Binding Index)” value on IDBP was 0.
